Measured values taken from article PMC4632086, “Effects and possible mechanisms of action of acacetin on the behavior and eye morphology of Drosophila models of Alzheimer’s disease” (Scientific Reports, 2015).
Where two headings read alike, the source gives them in different places. Values belong to the compound of their own block, whether it stands above or below them.

How the values were obtained:
human BACE-1 = conditions: cited from earlier work
recombinant human BACE-1 = target: T1, recombinant human BACE-1 (Homo sapiens, UniProt P56817); assay: FRET-based enzyme assay, BACE-1 inhibition; type: biochemical; conditions: for IC50: pH 4.5, 1 h at 25 °C; for Slope ± SE: slope of concentration-inhibition fit
T1 construct: purchased R&D Systems (Minneapolis, MN, USA)
T1 sequence (P56817 46-501): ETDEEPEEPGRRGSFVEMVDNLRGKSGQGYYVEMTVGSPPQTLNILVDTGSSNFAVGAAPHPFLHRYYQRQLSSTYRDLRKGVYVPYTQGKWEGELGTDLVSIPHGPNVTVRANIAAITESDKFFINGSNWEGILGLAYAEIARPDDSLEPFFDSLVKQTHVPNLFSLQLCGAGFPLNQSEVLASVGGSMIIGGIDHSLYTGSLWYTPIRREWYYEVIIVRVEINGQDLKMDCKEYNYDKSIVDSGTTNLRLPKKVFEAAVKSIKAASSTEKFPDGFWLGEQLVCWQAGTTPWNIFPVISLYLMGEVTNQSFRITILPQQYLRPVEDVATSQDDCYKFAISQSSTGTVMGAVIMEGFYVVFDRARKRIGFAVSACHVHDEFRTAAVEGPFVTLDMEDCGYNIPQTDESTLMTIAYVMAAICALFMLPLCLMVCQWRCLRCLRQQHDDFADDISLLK

[1] = system: transgenic Drosophila AD models; parameters: method as in PMID 22348084; conditions: five different transgenic Drosophila AD models; cited from earlier work

Compound: C/C=C/c1cc(=O)c2c(C)cc(OC)c([C@@H]3O[C@H](CO)[C@@H](O)[C@H](O)[C@H]3O)c2o1 [C-2′-decoumaroyl-aloeresin G]
IC50 (human BACE-1; benzopyranoids): 20.5 µM

Compound: CC1(C)CC[C@]2(C(=O)O)CC[C@]3(C)C(=CC[C@@H]4[C@@]5(C)C[C@@H](O)[C@H](O)C(C)(C)[C@@H]5CC[C@]43C)[C@@H]2C1 [Maslinic acid, maslinic acid]
IC50 (recombinant human BACE-1; IC50, μM (95% CL)): 488 µM | Slope ± SE (recombinant human BACE-1): 1.4 ± 0.09

IC50 (recombinant human BACE-1; read-out: IC50, μM (95% CL)): 355 µM
Compound: CC1(C)CC[C@]2(C(=O)O)CC[C@]3(C)C(=CC[C@@H]4[C@@]5(C)CC[C@H](O)C(C)(C)[C@@H]5CC[C@]43C)[C@@H]2C1 [Oleanolic acid, oleanolic acid]

Compound: COc1ccc(-c2cc(=O)c3c(O)cc(O)cc3o2)cc1 [Pure acacetin, acacetin]
IC50 (recombinant human BACE-1; read-out: IC50, μM (95% CL)): 81.2 µM | Slope ± SE (recombinant human BACE-1): 0.4 ± 0.03

Compound: COc1cc(C)c2c(=O)cc(C[C@@H](C)O)oc2c1[C@@H]1O[C@H](CO)[C@@H](O)[C@H](O)[C@H]1OC(=O)/C=C/c1ccc(O)cc1 [aloeresin D]
IC50 (human BACE-1; benzopyranoids): 39 µM

Compound: C=C[C@@](C)(/C=C/c1ccc(O)cc1)CCC=C(C)C [bakuchiol]
IC50 (human BACE-1): 21.4 µM

Compound: O=C(O[C@@H]1O[C@@H]2COC(=O)c3cc(O)c(O)c(O)c3-c3c(cc(O)c(O)c3O)C(=O)O[C@H]([C@H]1O)[C@@H]2O)c1cc(O)c(O)c(O)c1 [corilagin]
IC50 (human BACE-1; tannins): 34 µM

Compound: COc1cc(/C=C/C(=O)CC(=O)/C=C/c2ccc(O)c(OC)c2)ccc1O [curcumin]
improved lifespan [1]: up to 75%

Compound: COc1cc2c(cc1OC)-c1cc3ccc4c(c3c[n+]1CC2)OCO4 [epiberberi]
IC50 (human BACE-1; alkaloids): 8.55 µM

Compound: O=C1O[C@H]2[C@@H]3OC(=O)c4cc(O)c(O)c(O)c4-c4c(cc(O)c(O)c4O)C(=O)OC[C@H]2O[C@@H](OC(=O)c2cc(O)c(O)c(O)c2)[C@@H]3OC(=O)c2cc(O)c(O)c3c2[C@@H]2C1=CC(=O)[C@](O)(O3)C2(O)O [geraniin]
IC50 (human BACE-1; tannins): 4 µM

Compound: COc1cc2c(cc1O)CC[n+]1cc3c4c(ccc3cc1-2)OCO4 [groenlandicine]
IC50 (human BACE-1; alkaloids): 19.7 µM

Compound: O=C(O)/C=C/c1ccc(O)cc1 [p-coumaric acid]
IC50 (human BACE-1; phenylpropanoids): 90 µM
